# Test results published in PubChem BioAssay AID2060610 (Molecular Pharmacology Branch, DTP, NCI, 2025).
# Several values for one entry are separate records, joined by “and”; a condition that tells them apart may be missing. Equal entries are not always repeated.
# Tested on: 616215-338-R-J1-PDC complex spheroids, viability % test/control
# Test: Anticancer human tumor 616215-338-R-J1-PDC patient-derived colon adenocarcinoma cell line growth inhibition [CLK]
# Conditions: for viability, T/C: stronger effect = lower value
# Outline: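 Patient-derived tumor cells grown as complex spheroids with HUVEC endothelial cells and mesenchymal stem cells, treated with drug combinations. Concentrations descend in half-log steps from near clinical Cmax, or from 10 microM if Cmax unknown.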
# [1] = curve of first compound, second compound 0.0316 µM
# [2] = curve of first compound, second compound 0.1 µM
# [3] = curve of first compound, second compound 0.316 µM
# [4] = curve of first compound, second compound 1 µM
# [5] = curve of first compound, second compound 3.16 µM
# [6] = curve of first compound, second compound 10 µM
# [7] = second compound 0.0316 µM, first compound 0.00316 µM
# [8] = second compound 0.0316 µM, first compound 0.01 µM
# [9] = second compound 0.0316 µM, first compound 0.0316 µM
# [10] = second compound 0.0316 µM, first compound 0.1 µM
# [11] = second compound 0.1 µM, first compound 0.00316 µM
# [12] = second compound 0.1 µM, first compound 0.01 µM
# [13] = second compound 0.1 µM, first compound 0.0316 µM
# [14] = second compound 0.1 µM, first compound 0.1 µM
# [15] = second compound 0.316 µM, first compound 0.00316 µM
# [16] = second compound 0.316 µM, first compound 0.01 µM
# [17] = second compound 0.316 µM, first compound 0.0316 µM
# [18] = second compound 0.316 µM, first compound 0.1 µM
# [19] = second compound 1 µM, first compound 0.00316 µM
# [20] = second compound 1 µM, first compound 0.01 µM
# [21] = second compound 1 µM, first compound 0.0316 µM
# [22] = second compound 1 µM, first compound 0.1 µM
# [23] = second compound 3.16 µM, first compound 0.00316 µM
# [24] = second compound 3.16 µM, first compound 0.01 µM
# [25] = second compound 3.16 µM, first compound 0.0316 µM
# [26] = second compound 3.16 µM, first compound 0.1 µM
# [27] = second compound 10 µM, first compound 0.00316 µM
# [28] = second compound 10 µM, first compound 0.01 µM
# [29] = second compound 10 µM, first compound 0.0316 µM
# [30] = second compound 10 µM, first compound 0.1 µM
# [31] = second compound 0.0316 µM, first compound 0.316 µM
# [32] = second compound 0.0316 µM, first compound 1 µM
# [33] = second compound 0.1 µM, first compound 0.316 µM
# [34] = second compound 0.1 µM, first compound 1 µM
# [35] = second compound 0.316 µM, first compound 0.316 µM
# [36] = second compound 0.316 µM, first compound 1 µM
# [37] = second compound 1 µM, first compound 0.316 µM
# [38] = second compound 1 µM, first compound 1 µM
# [39] = second compound 3.16 µM, first compound 0.316 µM
# [40] = second compound 3.16 µM, first compound 1 µM
# [41] = second compound 10 µM, first compound 0.316 µM
# [42] = second compound 10 µM, first compound 1 µM
# 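Note: spheroids exposed to agents for 7 days.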
# 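Throughout, for viability, T/C: 100% = DMSO vehicle wells.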
smiles,measurement,setting,value
Cn1ncnc1[C@H]1c2n[nH]c(=O)c3cc(F)cc(c23)N[C@@H]1c1ccc(F)cc1 + CNC(=O)c1ccc(Nc2nc(OC3CCCC3)c3c(-c4ccc5nc(C)oc5c4)c[nH]c3n2)c(OC)c1,IC50,[1],> 100 nM
same,IC50,[2],< 0.316 nM
same,IC50,[3],< 0.316 nM
same,IC50,[4],< 0.316 nM
same,IC50,[5],< 0.316 nM
same,IC50,[6],< 0.316 nM
same,"viability, T/C","second compound 0.0316 µM, first compound 0.000316 µM",97.2%
same,"viability, T/C","second compound 0.0316 µM, first compound 0.001 µM",93.8%
same,"viability, T/C",[7],102%
same,"viability, T/C",[8],102%
same,"viability, T/C",[9],101%
same,"viability, T/C",[10],108%
same,"viability, T/C","second compound 0.1 µM, first compound 0.000316 µM",46.1%
same,"viability, T/C","second compound 0.1 µM, first compound 0.001 µM",46.5%
same,"viability, T/C",[11],47.9%
same,"viability, T/C",[12],54.5%
same,"viability, T/C",[13],59.8%
same,"viability, T/C",[14],49.6%
same,"viability, T/C","second compound 0.316 µM, first compound 0.000316 µM",46.7%
same,"viability, T/C","second compound 0.316 µM, first compound 0.001 µM",45.3%
same,"viability, T/C",[15],40.5%
same,"viability, T/C",[16],45.1%
same,"viability, T/C",[17],37.7%
same,"viability, T/C",[18],51.3%
same,"viability, T/C","second compound 1 µM, first compound 0.000316 µM",39.2%
same,"viability, T/C","second compound 1 µM, first compound 0.001 µM",44.8%
same,"viability, T/C",[19],41.9%
same,"viability, T/C",[20],48.1%
same,"viability, T/C",[21],44.3%
same,"viability, T/C",[22],56.3%
same,"viability, T/C","second compound 3.16 µM, first compound 0.000316 µM",42.2%
same,"viability, T/C","second compound 3.16 µM, first compound 0.001 µM",45.1%
same,"viability, T/C",[23],45.5%
same,"viability, T/C",[24],42.9%
same,"viability, T/C",[25],52%
same,"viability, T/C",[26],50.9%
same,"viability, T/C","second compound 10 µM, first compound 0.000316 µM",38.8%
same,"viability, T/C","second compound 10 µM, first compound 0.001 µM",43.6%
same,"viability, T/C",[27],50.2%
same,"viability, T/C",[28],50.1%
same,"viability, T/C",[29],54.9%
same,"viability, T/C",[30],47.2%
CCN1CCN(Cc2ccc(Nc3ncc(F)c(-c4cc(F)c5nc(C)n(C(C)C)c5c4)n3)nc2)CC1 + CNC(=O)c1ccc(Nc2nc(OC3CCCC3)c3c(-c4ccc5nc(C)oc5c4)c[nH]c3n2)c(OC)c1,IC50,[1],928 nM
same,IC50,[2],285 nM
same,IC50,[3],< 3.16 nM
same,IC50,[4],136 nM
same,IC50,[5],357 nM
same,IC50,[6],< 3.16 nM
same,"viability, T/C",[7],83%
same,"viability, T/C",[8],93.2%
same,"viability, T/C",[9],95.5%
same,"viability, T/C",[10],137%
same,"viability, T/C",[31],130%
same,"viability, T/C",[32],46%
same,"viability, T/C",[11],51.6%
same,"viability, T/C",[12],55%
same,"viability, T/C",[13],56.3%
same,"viability, T/C",[14],58%
same,"viability, T/C",[33],48.1%
same,"viability, T/C",[34],26.7%
same,"viability, T/C",[15],45.5%
same,"viability, T/C",[16],49.2%
same,"viability, T/C",[17],53.5%
same,"viability, T/C",[18],50.3%
same,"viability, T/C",[35],47.9%
same,"viability, T/C",[36],28.2%
same,"viability, T/C",[19],51.8%
same,"viability, T/C",[20],49.1%
same,"viability, T/C",[21],59.6%
same,"viability, T/C",[22],55%
same,"viability, T/C",[37],39.5%
same,"viability, T/C",[38],28.6%
same,"viability, T/C",[23],47.4%
same,"viability, T/C",[24],50.3%
same,"viability, T/C",[25],53%
same,"viability, T/C",[26],54.1%
same,"viability, T/C",[39],61.2%
same,"viability, T/C",[40],22.7%
same,"viability, T/C",[27],41.6%
same,"viability, T/C",[28],46.8%
same,"viability, T/C",[29],58.5%
same,"viability, T/C",[30],52.2%
same,"viability, T/C",[41],46%
same,"viability, T/C",[42],29.2%
CCc1c2c(nc3ccc(O)cc13)-c1cc3c(c(=O)n1C2)COC(=O)[C@]3(O)CC + CNC(=O)c1ccc(Nc2nc(OC3CCCC3)c3c(-c4ccc5nc(C)oc5c4)c[nH]c3n2)c(OC)c1,IC50,[1],13.5 nM
same,IC50,[2],7.31 nM
same,IC50,[3],< 3.16 nM
same,IC50,[4],3.52 nM
same,IC50,[5],< 3.16 nM
same,IC50,[6],< 3.16 nM
same,"viability, T/C",[7],111%
same,"viability, T/C",[8],51.1%
same,"viability, T/C",[9],35.8%
same,"viability, T/C",[10],25.6%
same,"viability, T/C",[31],14.6%
same,"viability, T/C",[32],9.31%
same,"viability, T/C",[11],56.9%
same,"viability, T/C",[12],51.3%
same,"viability, T/C",[13],27.3%
same,"viability, T/C",[14],21.5%
same,"viability, T/C",[33],14.6%
same,"viability, T/C",[34],5.13%
same,"viability, T/C",[15],37.9%
same,"viability, T/C",[16],38.9%
same,"viability, T/C",[17],24.8%
same,"viability, T/C",[18],20.2%
same,"viability, T/C",[35],14.6%
same,"viability, T/C",[36],1.77%
same,"viability, T/C",[19],53.5%
same,"viability, T/C",[20],28.5%
same,"viability, T/C",[21],18.4%
same,"viability, T/C",[22],17.2%
same,"viability, T/C",[37],11.8%
same,"viability, T/C",[38],1.4%
same,"viability, T/C",[23],37%
same,"viability, T/C",[24],27.3%
same,"viability, T/C",[25],17.1%
same,"viability, T/C",[26],14.9%
same,"viability, T/C",[39],11.8%
same,"viability, T/C",[40],2.58%
same,"viability, T/C",[27],40.6%
same,"viability, T/C",[28],25.2%
same,"viability, T/C",[29],18.5%
same,"viability, T/C",[30],17.3%
same,"viability, T/C",[41],11.6%
same,"viability, T/C",[42],1.03%
O=C(c1cc(Cc2n[nH]c(=O)c3ccccc23)ccc1F)N1CCN(C(=O)C2CC2)CC1 + CN1CCN(c2cc(C(=O)Nc3cc4cc(-c5cnn(C)c5)ccc4cn3)ccn2)CC1,IC50,[1],> 10000 nM
same,IC50,[2],> 10000 nM
same,IC50,[3],< 31.6 nM
same,IC50,[4],< 31.6 nM
same,IC50,[5],< 31.6 nM
same,IC50,[6],< 31.6 nM
same,"viability, T/C",[9],99.4%
same,"viability, T/C",[10],113%
same,"viability, T/C",[31],100%
same,"viability, T/C",[32],96.6%
same,"viability, T/C","second compound 0.0316 µM, first compound 3.16 µM",103%
same,"viability, T/C","second compound 0.0316 µM, first compound 10 µM",67.3%
same,"viability, T/C",[13],114%
same,"viability, T/C",[14],110%
same,"viability, T/C",[33],98.9%
same,"viability, T/C",[34],107%
same,"viability, T/C","second compound 0.1 µM, first compound 3.16 µM",82.9%
same,"viability, T/C","second compound 0.1 µM, first compound 10 µM",55.4%
same,"viability, T/C",[17],34.9%
same,"viability, T/C",[18],44.1%
same,"viability, T/C",[35],31.3%
same,"viability, T/C",[36],40.5%
same,"viability, T/C","second compound 0.316 µM, first compound 3.16 µM",30.6%
same,"viability, T/C","second compound 0.316 µM, first compound 10 µM",29.3%
same,"viability, T/C",[21],0.12%
same,"viability, T/C",[22],0.17%
same,"viability, T/C",[37],0.13%
same,"viability, T/C",[38],0.1%
same,"viability, T/C","second compound 1 µM, first compound 3.16 µM",1.83%
same,"viability, T/C","second compound 1 µM, first compound 10 µM",0.09%
same,"viability, T/C",[25],0.09%
same,"viability, T/C",[26],0.15%
same,"viability, T/C",[39],0.12%
same,"viability, T/C",[40],0.1%
same,"viability, T/C","second compound 3.16 µM, first compound 3.16 µM",0.12%
same,"viability, T/C","second compound 3.16 µM, first compound 10 µM",0.19%
same,"viability, T/C",[29],0.11%
same,"viability, T/C",[30],0.14%
same,"viability, T/C",[41],0.18%
same,"viability, T/C",[42],0.13%
same,"viability, T/C","second compound 10 µM, first compound 3.16 µM",0.23%
same,"viability, T/C","second compound 10 µM, first compound 10 µM",1.83%
C=CC(=O)Nc1cc(Nc2nccc(-c3cn(C)c4ccccc34)n2)c(OC)cc1N(C)CCN(C)C,"viability, T/C",compound 0.000949 µM,108% and 95%
same,"viability, T/C",compound 0.003 µM,93.5% and 105%
same,"viability, T/C",compound 0.00949 µM,107% and 85.4%
same,"viability, T/C",compound 0.03 µM,95.3% and 86.5%
same,"viability, T/C",compound 0.0949 µM,134% and 90.5%
same,"viability, T/C",compound 0.3 µM,100% and 111%
same,IC50,curve of compound,> 300 nM
